# Tested on: α-fodrin gene
# Test: α-fodrin gene expression in lymphocyte-derived immortalized cells before and after drug administration (real-time PCR)
# Assay type: cell-based, human
# Conditions: EB virus-immortalized cells derived from lymphocytes of the migraine group and the healthy group; before vs after administration of the drug to cells in culture; FIG. 2
# Excerpt: Peripheral bloods were harvested from 5 patients having an aura of migraine, as diagnosed according to the International Classification of Headache Disorders 2nd Edition (ICHD-II) of the International Headache Society as well as from 5 healthy subjects constituting a control group who are matched with the 5 patients in terms of age and sex. From the migraine subjects, their bloods were drawn during an interval between migraine attacks. Their lymphocytes were isolated by centrifugation from the peripheral bloods collected from each group.
# The lymphocytes of each group were infected by adding 1 mL of EB virus supernatant (the culture supernatant of B958 cells, EB virus-producing cells) to the lymphocytes at 2×10^6 cells and 2 μL of 100-fold diluted cyclosporin solution (original solution of cyclosporin (Sandimmun 1A (5 ml) 250 mg) to the lymphocytes at 2×10^6 cells, followed by incubation in RPMI(+) medium for about four days. Then, cell lines established by continuous passaging in the same medium were used as the lymphocyte-derived immortalized cells in the present invention. These immortalized cells were used for the following experiments under the same conditions of culture condition, number of passages, etc.
# Thus, the gene expression levels of α-fodrin and HPCAL1 were examined by performing quantitative real-time PCR using immortalized lymphocytes obtained from the migraine and healthy subjects as samples. […] The expression level of each gene was relatively quantified by the comparative Ct (threshold cycle) method based on the amplification curve obtained from the PCR.
# Immortalized cells derived from lymphocytes of the migraine group and the healthy group were subjected to mRNA expression analysis in the same manner as described above. […] By using part of the immortalized cells before and after the administration of each drug, the expression level of α-fodrin gene was analyzed.
row,Structure (SMILES),expression level of α-fodrin gene
1,CC(=O)Oc1ccccc1C(=O)O [aspirin],reduced the expression level of α-fodrin
2,"NC(N)=Nc1nc(CSCCC(N)=NS(N)(=O)=O)cs1 [Gaster, famotidine]",increased the expression level of α-fodrin
3,CNS(=O)(=O)Cc1ccc2[nH]cc(CCN(C)C)c2c1 [sumatriptan],reduced the expression level of α-fodrin

# Source: patent US20120004122A1, “Diagnostic Marker for Migraine and Use Thereof” (priority 2005, published 2012)
